Patent US9708306B2, “Benzimidazole derivatives and preparation process and pharmaceutical uses thereof” (WUHAN LL SCIENCE AND TECHNOLOGY DEVELOPMENT CO., LTD, priority 2015, dated 2017)

Test system: renovascular hypertensive rats
Assay: Effect on reducing blood pressure of renovascular hypertensive rats by single oral administration of potassium salt of QR01019
Type: in vivo, Wistar rats
Conditions: RHR
Description: Wistar rats (provided by Hubei Province Disease Prevention Control Center, Wuhan, Hubei), male, weighted of 180 to 200 g, are randomly classified into 5 groups, including negative control group (0.5% CMC-Na), positive control group (1.0 mg/kg of potassium salt of Azilsartan medoxomil as the positive drug) and three groups with the test compound, QR01019 potassium salt (1.0 mg/kg), 6-8 animals per group. The unilateral renal artery of the rates were ligated to form two-kidney, one-clip renovascular hypertensive rat (RHR) models. After the surgery, the blood pressure was measured for weekly, and the measurement continued for 4 weeks. The rats whose blood pressures were steadily elevated by 4 kPa were successfully modeled rats. Before measuring blood pressure, the rat tails were heated by using a cyclic water bath tail sleeve at 39° C. to expand tail vessel, and thereafter, a tail sleeve method (BP2010A noninvasive blood pressure meter, Beijing Jiandeer Technology Limited Corporation, No. 1, Shangdi 10th Street, Haidian District, Beijing) was used to measure the blood pressures and heart rates of the rats before the administrations and at 1, 3, 5, 7, and 10 hours after oral administration, and each of the time points was measured three times to take the mean value. Maximum Blood pressure reduction (%)=maximum blood pressure reduction value after the administration/blood pressure value before the administration*100%.

[1] = 1.0 mg/kg, single oral administration

With `CCOc1nc2cccc(C(=O)OC(C)OC(=O)OCc3nc(C)c(C)nc3C)c2n1Cc1ccc(-c2ccccc2-c2noc(=O)[nH]2)cc1.[K]` (stereo not shown) [QR01019 potassium salt] the “Maximum blood pressure reduction” value [1] was 38 ± 4.3%, the “Variations on heart rate” value [1] was −18 ± 5% and the “regulation on the heart rate compared with positive control group” value (result in words) was “obviously superior to the positive control group”. For the same compound, the “blood pressure reduction effect compared with control group” value (same dosage, result in words) was “significant blood pressure reduction effect”.
